Test results reported in article PMC5045712 (Bioorganic & medicinal chemistry, 2016).

Assays:
B. anthracis DHOase [1] = target: T1, B. anthracis DHOase (Bacillus anthracis, UniProt Q81WF0); conditions: cited from earlier work
[2] = target: WT-DHOase (B. anthracis DHOase) (Bacillus anthracis, UniProt Q81WF0); type: biochemical
E. coli DHOase = conditions: cited from earlier work
B. anthracis DHOase [3] = target: T1, B. anthracis DHOase; type: binding; conditions: for KD (equilibrium dissociation constant determined by SPR): 25 °C
B. anthracis DHOase [4] = target: T1, B. anthracis DHOase; type: binding

T1 sequence (Q81WF0 whole entry, looked up): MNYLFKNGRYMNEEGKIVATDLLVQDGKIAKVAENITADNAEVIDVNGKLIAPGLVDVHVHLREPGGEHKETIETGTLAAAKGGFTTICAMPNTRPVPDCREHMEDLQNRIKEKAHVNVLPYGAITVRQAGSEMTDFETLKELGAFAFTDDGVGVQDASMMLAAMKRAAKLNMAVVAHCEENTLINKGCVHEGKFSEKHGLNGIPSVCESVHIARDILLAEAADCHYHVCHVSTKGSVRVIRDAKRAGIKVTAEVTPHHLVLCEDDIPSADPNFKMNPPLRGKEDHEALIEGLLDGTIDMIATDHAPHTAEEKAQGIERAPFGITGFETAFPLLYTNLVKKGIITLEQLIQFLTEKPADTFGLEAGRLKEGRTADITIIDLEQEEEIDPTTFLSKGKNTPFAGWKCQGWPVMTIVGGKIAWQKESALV
WT-DHOase (B. anthracis DHOase), sequence (Q81WF0 whole entry, looked up): as above

SMILES: Nc1c(C(=O)O)[nH]c(=O)[nH]c1=O [5-aminoorotate (AOA), 5-aminoorotate]
- inhibition of B. anthracis DHOase (B. anthracis DHOase [1]): no inhibition

SMILES: O=C(O)c1[nH]c(=O)[nH]c(=O)c1F [5-fluoroorotate (FOA), 5-fluoroorotate]
- inhibition of B. anthracis DHOase (B. anthracis DHOase [1]): no inhibition

SMILES: NC(=O)N[C@@H](CC(=O)O)C(=O)O [Ca-asp, carbamyl-asparate]
- Km [2]: 112 ± 24 µM
- kcat [2]: 2.1 ± 0.1 s⁻¹
- Km (E. coli DHOase): 1700 µM
- kcat (E. coli DHOase): 160 ± 8 s⁻¹

SMILES: CCC(=O)Nc1ccc(OC)cc1OC [Compound 4]
- KD with 1 mM Ca-asp (B. anthracis DHOase [3]): remained the same
- shift in melting temperature (Tm) (B. anthracis DHOase [4]): shows a shift in melting temperature

SMILES: COc1ccc2[nH]c3c(c2c1)CCNC3 [Compound 6a]
- KD with 1 mM Ca-asp (B. anthracis DHOase [3]): not affected
- fold change of KD relative to compound 6 (B. anthracis DHOase [3]): ~ 1.5 fold

SMILES: Cc1ccc2[nH]c3c(c2c1)CCNC3 [Compound 6b]
- KD (equilibrium dissociation constant determined by SPR) (B. anthracis DHOase [3]): completely abolished

SMILES: COc1ccc2[nH]c(CN)cc2c1 [Compound 6c]
- KD (equilibrium dissociation constant determined by SPR) (B. anthracis DHOase [3]): no interaction

SMILES: CSC1(NC#N)NCCc2c1[nH]c1ccc(F)cc21 (stereo not shown) [Compound 7]
- KD with 1 mM Ca-asp (B. anthracis DHOase [3]): unable to be determined

SMILES: COc1ccc2[nH]c3c(c2c1)CCNC3(NC#N)SC (stereo not shown) [Compound 7a]
- fold change of KD relative to compound 6 (B. anthracis DHOase [3]): 18 fold

SMILES: COc1ccc2[nH]c3c(c2c1)CN(C(C)=O)CC3 [Compound 8]
- KD (equilibrium dissociation constant determined by SPR) (B. anthracis DHOase [3]): weaker

SMILES: O=C1CC(C(=O)O)NC(=O)N1 (stereo not shown) [DHO, dihydroorotate]
- Km [2]: 114 ± 16 µM
- kcat [2]: 1.9 ± 0.1 s⁻¹
- Km (E. coli DHOase): 80 µM
- kcat (E. coli DHOase): 100 ± 1.6 s⁻¹
